Reference: patent US20220249457A1, “METHOD OF MODULATING RIBONUCLEOTIDE REDUCTASE” (CASE WESTERN RESERVE UNIVERSITY, priority 2019, published 2022)

Assays:
hRRM1 = molecular target: T1, hRRM1 (Homo sapiens, UniProt P23921); test: hRRM1 enzyme activity inhibition (RR radioactivity assay, boronate chromatography); assay type: biochemical; parameters: key: Compounds which are found to have extremely high potency are classified as “****”; Compounds which are found to have very high potency of protein synthesis are classified as “***”; conditions: potency ranking by minimum concentration required to inhibit enzyme activity; six concentrations 1-100 μM incubated with hRRM1 30 minutes, diluted by a factor of 5
T1 construct: made in house; host or cells: E. coli BL21 DE3 (RIL)
T1 sequence (P23921 1-792): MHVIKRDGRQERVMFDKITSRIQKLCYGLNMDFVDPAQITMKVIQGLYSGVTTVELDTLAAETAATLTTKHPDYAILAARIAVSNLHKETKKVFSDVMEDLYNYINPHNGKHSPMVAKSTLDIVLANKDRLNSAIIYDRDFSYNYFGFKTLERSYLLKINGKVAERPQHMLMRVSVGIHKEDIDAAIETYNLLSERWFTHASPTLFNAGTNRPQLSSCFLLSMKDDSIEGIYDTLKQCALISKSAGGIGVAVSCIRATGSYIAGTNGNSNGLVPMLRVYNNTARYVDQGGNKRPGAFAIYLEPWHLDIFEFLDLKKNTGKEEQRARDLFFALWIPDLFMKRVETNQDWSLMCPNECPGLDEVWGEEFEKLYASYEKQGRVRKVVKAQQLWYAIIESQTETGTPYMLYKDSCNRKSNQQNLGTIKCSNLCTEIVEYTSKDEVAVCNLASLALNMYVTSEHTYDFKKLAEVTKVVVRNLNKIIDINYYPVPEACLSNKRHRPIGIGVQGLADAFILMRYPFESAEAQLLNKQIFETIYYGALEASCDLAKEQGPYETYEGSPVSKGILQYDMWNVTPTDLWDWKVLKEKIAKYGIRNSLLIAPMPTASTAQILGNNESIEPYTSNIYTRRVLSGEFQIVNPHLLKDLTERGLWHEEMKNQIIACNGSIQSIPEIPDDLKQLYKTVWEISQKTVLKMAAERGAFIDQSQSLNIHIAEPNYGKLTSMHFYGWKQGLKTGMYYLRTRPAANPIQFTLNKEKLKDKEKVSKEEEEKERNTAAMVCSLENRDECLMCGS
Protocol: Activity measurements in Table 2 is performed as described below. Briefly, six concentrations of the compounds ranging from 1-100 μM of the compounds are incubated on ice with 2.5 μmol of hRRM1 for 30 minutes. The assay sample was then diluted by a factor of 5, and enzyme activity was assayed in triplicate. […] Activity measurements are based on the qualitative relation between the minimum concentration of compound required to produce inhibit enzyme activity. Potency activities are ranked as either extremely high, very high or significant. These activities are used to determine the activity ranking. Compounds which are found to have extremely high potency are classified as “****” Compounds which are found to have very high potency […] are classified as “***”. Compounds which are found to have significant potency are classified as
In assay buffer, six concentrations of the compounds ranging from 1-100 μM of the compounds are incubated on ice with 2.5 μmol of hRRM1 for 30 minutes. The assay sample was then diluted by a factor of 5, and enzyme activity was assayed in triplicate.
The IC50 are determined using, boronate chromatography. Six concentrations of the RRmod are studied ranging from 1-100 μM. The assay is repeated in triplicate. Data are fitted in GraphPad Prism 6.05 using a sigmoidal dose-response curve.

[1] = system: normal mobilized peripheral blood progenitor cells; conditions: previously characterized; cited from earlier work
hRRM1 hexamers = molecular target: T2, hRRM1 hexamers (Homo sapiens, UniProt P23921); conditions: cited from earlier work
T2 sequence (P23921 1-792): T1 sequence (P23921 1-792)

Row | Structure (SMILES) | Activity (hRRM1) | also measured
1 | Oc1ccccc1-c1nnc(-c2ccccc2O)o1 | *** | 
2 | COc1ccc(Br)c(-c2nnc(-c3ccccc3O)o2)c1O | *** | 
3 | COc1ccc(-c2ccsc2)c(-c2nnc(-c3ccccc3O)o2)c1O | *** | 
4 | Oc1ccccc1-c1nc(-c2ccccc2Br)no1 | **** | 
5 | Oc1ccccc1-c1nnc(-c2cc(-c3ccccc3)ccc2O)o1 | *** | 
6 | COc1ccc(-c2ccccc2)c(-c2nnc(-c3ccccc3O)o2)c1O | *** | 
7 | Oc1ccccc1-c1nc(-c2ccccc2-c2ccccc2)no1 | *** | 
8 | Oc1ccccc1-c1nc(-c2ccccc2-c2ccsc2)no1 | *** | 
9 | Oc1ccccc1-c1cnc(-c2ccccc2O)s1 | *** | 
10 | COc1ccc(-c2cnc(-c3ccccc3O)s2)cc1 | *** | 
11 | Oc1ccccc1-c1noc(-c2cccs2)n1 | *** | 
12 | Oc1ccccc1-c1noc(-c2cccnc2)n1 | **** | 
13 | Oc1ccccc1-c1nc(-c2cccnc2)no1 | **** | 
14 | c1cncc(-c2noc(-c3cccnc3)n2)c1 | **** | 
15 | c1cncc(-c2noc(-c3cnc4ccccc4c3)n2)c1 | *** | 
16 | c1cncc(-c2noc(-c3ccco3)n2)c1 | *** | 
17 | c1cncc(-c2noc(-c3cccs3)n2)c1 | *** | 
18 | COc1ccccc1-c1noc(-c2ccccc2O)n1 | *** | 
19 | COc1ccccc1-c1nc(-c2ccccc2O)no1 | **** | 
20 | Oc1ccccc1-c1nc(-c2ccccc2OCc2ccccc2)no1 | *** | 
21 | Oc1ccccc1-c1c[nH]c(-c2ccccc2O)n1 | *** | 
22 | Oc1ccccc1-c1cn(-c2ccccc2O)nn1 | *** | 
23 | Oc1ccccc1-c1nnn(-c2ccccc2O)n1 | *** | 
24 | Oc1ccc(Br)cc1-c1nnc(-c2cccnc2)o1 | *** | 
25 | O=C(NN=Cc1c(O)ccc2ccccc12)c1ccccc1O [NSAAH, Naphthyl Salicyl Acyl Hydrazone] |  | cytotoxicity [1]: little measurable cytotoxicity
26 | Nc1nc(Cl)nc2c1ncn2[C@@H]1O[C@H](CO)[C@@H](O)[C@@H]1F [clofarabine, 2′-fluro-2′-deoxyarabinofuranosyl-2-chloroadenine] |  | binding affinity (hRRM1 hexamers): nanomolar affinity
